Assay results published in US4160829A, “Antibacterial 1,2,4-oxadiazolylacetamido cephalosporins” (Gist-Brocades N.V., priority 1972, dated 1979).
In brackets after ≈: the same amount, converted by molar mass. Like-named read-outs stand apart in the source and are kept apart here.

Tests used:
Prot.mirab. H 3 = assay: agar serial dilution test; format: cell-based, Proteus mirabilis; details: Proteus mirabilis
Salm.dubl. P 43 = assay: agar serial dilution test; format: cell-based, Salmonella dublin; details: Salmonella enterica, read-out: minimal inhibitory concentration (MIC)
Staph.aureus A 2000 [1] = assay: micro serial dilution test; format: cell-based, Staphylococcus aureus; details: Staphylococcus aureus, A2000, 18 h, micro serial dilution (in brackets), about 18 hours, 30° C. or 37° C.; read-out: minimal inhibitory concentration (MIC)
Past.multo. A 723 = assay: agar serial dilution test; format: cell-based, Pasteurella multocida; details: Pasteurella multocida; agar serial dilution, 24 hours, 37° C.; read-out: minimal inhibitory concentration (MIC)
Staph.aureus A 355 [2] = assay: micro serial dilution test; format: cell-based, Staphylococcus aureus; details: Staphylococcus aureus, A355; micro serial dilution (in brackets), about 18 hours, 30° C. or 37° C.; penicillinase-producing strain; read-out: minimal inhibitory concentration (MIC)
[3] = test system: Pseud.aerug. Wyeth A 1058; assay: agar serial dilution test; format: cell-based; details: agar serial dilution, 24 hours, 37° C.; read-out: minimal inhibitory concentration (MIC)
Prot.mirab. A 1200 = assay: agar serial dilution test; format: cell-based, Proteus mirabilis; details: Proteus mirabilis, 24 h, agar serial dilution, 24 hours, 37° C.; read-out: minimal inhibitory concentration (MIC)
Strep.haem. A 266 = assay: agar serial dilution test; format: cell-based, Streptococcus haemolyticus; details: Streptococcus; agar serial dilution, 24 hours, 37° C.; read-out: minimal inhibitory concentration (MIC)
Strep. faec. L 80 = assay: agar serial dilution test; format: cell-based, Streptococcus faecalis; details: Enterococcus faecalis; agar serial dilution, 24 hours, 37° C.; read-out: minimal inhibitory concentration (MIC)
Staph.aureus A 2001 [4] = assay: micro serial dilution test; format: cell-based, Staphylococcus aureus; details: Staphylococcus aureus, A2001, 18 h, micro serial dilution (in brackets), about 18 hours, 30° C. or 37° C.; read-out: minimal inhibitory concentration (MIC)
Esch.coli U 20 = assay: agar serial dilution test; format: cell-based, Escherichia coli; details: Escherichia coli, U20; agar serial dilution, 24 hours, 37° C.; read-out: minimal inhibitory concentration (MIC)
Bac.Subt.ATCC 6633 = assay: agar serial dilution test; format: cell-based, Bacillus subtilis; details: Bacillus subtilis, ATCC6633, 24 h, agar serial dilution, 24 hours, 37° C.; read-out: minimal inhibitory concentration (MIC)
Staph.aureus A 2000 [5] = assay: agar serial dilution test; format: cell-based, Staphylococcus aureus; details: Staphylococcus aureus, A2000, 24 h, agar serial dilution, 24 hours, 37° C.; read-out: minimal inhibitory concentration (MIC)
Prot.rettg. A 821 = assay: agar serial dilution test; format: cell-based, Proteus rettgeri; details: Providencia rettgeri, 24 h, read-out: minimal inhibitory concentration (MIC)
Pseud.aerug. 2396 = assay: agar serial dilution test; format: cell-based; details: agar serial dilution, 24 hours, 37° C.; read-out: minimal inhibitory concentration (MIC)
Staph.aureus A 321 = assay: agar serial dilution test; format: cell-based, Staphylococcus aureus; details: Staphylococcus aureus, A321, 24 h, agar serial dilution, 24 hours, 37° C.; read-out: minimal inhibitory concentration (MIC)
Pseud.aerug. H 10 = assay: agar serial dilution test; format: cell-based; details: agar serial dilution, 24 hours, 37° C.; read-out: minimal inhibitory concentration (MIC)
Haem.infl. A 1030 = assay: micro serial dilution test; format: cell-based; details: 18 h, micro serial dilution (in brackets), about 18 hours, 30° C. or 37° C.; read-out: minimal inhibitory concentration (MIC)
Shig.equir. T 3 = assay: agar serial dilution test; format: cell-based; details: 24 h, 37° C., read-out: minimal inhibitory concentration (MIC)
Prot.mirab. L 93 = assay: agar serial dilution test; format: cell-based, Proteus mirabilis; details: Proteus mirabilis
Kleb.pneum. A 809 = assay: agar serial dilution test; format: cell-based, Klebsiella pneumoniae; details: Klebsiella pneumoniae; agar serial dilution, 24 hours, 37° C.; read-out: minimal inhibitory concentration (MIC)
Salm.typh. R 127 = assay: agar serial dilution test; format: cell-based; details: 24 h, 37° C., read-out: minimal inhibitory concentration (MIC)
Staph.aureus A 2001 [6] = assay: agar serial dilution test; format: cell-based, Staphylococcus aureus; details: Staphylococcus aureus, A2001, 24 h, agar serial dilution, 24 hours, 37° C.; read-out: minimal inhibitory concentration (MIC)
Staph.aureus A 355 [7] = assay: agar serial dilution test; details: Staphylococcus aureus, A355, 24 h, read-out: minimal inhibitory concentration (MIC), agar serial dilution, 24 hours, 37° C.; penicillinase-producing strain
Prot.morg. 2241 = assay: agar serial dilution test; format: cell-based; details: 24 h, agar serial dilution, 24 hours, 37° C.; read-out: minimal inhibitory concentration (MIC)
Bruc.melit. A 488 = assay: microbe, parasite or virus in culture; format: cell-based; details: Brucella melitensis, 24 h, read-out: minimal inhibitory concentration (MIC)
Dipl.pneum. L 54 = assay: agar serial dilution test; format: cell-based, Diplococcus pneumoniae; details: Streptococcus pneumoniae; agar serial dilution, 24 hours, 37° C.; read-out: minimal inhibitory concentration (MIC)
[8] = 24 h, read-out: minimal inhibitory concentration (MIC), agar serial dilution, 24 hours, 37° C.
[9] = agar serial dilution, 24 hours, 37° C.
[10] = agar serial dilution, 24 hours, 37° C., read-out: minimal inhibitory concentration (MIC)

Structure (SMILES)	MIC (Staph.aureus A 2000 [1]) [µg/mL]	MIC (Past.multo. A 723) [µg/mL]	MIC (Staph.aureus A 355 [2]) [µg/mL]	MIC [3] [µg/mL]	MIC (Prot.mirab. A 1200) [µg/mL]	MIC (Strep.haem. A 266) [µg/mL]	MIC (Strep. faec. L 80) [µg/mL]	MIC (Staph.aureus A 2001 [4]) [µg/mL]	MIC (Esch.coli U 20) [µg/mL]	MIC (Bac.Subt.ATCC 6633) [µg/mL]	MIC (Staph.aureus A 2000 [5]) [µg/mL]	MIC (Pseud.aerug. 2396) [µg/mL]	MIC (Staph.aureus A 321) [µg/mL]	MIC (Pseud.aerug. H 10) [µg/mL]	MIC (Haem.infl. A 1030) [µg/mL]	MIC (Shig.equir. T 3) [µg/mL]	MIC (Kleb.pneum. A 809) [µg/mL]	MIC (Salm.typh. R 127) [µg/mL]	MIC (Staph.aureus A 2001 [6]) [µg/mL]	MIC (Staph.aureus A 355 [7]) [µg/mL]	further results
CC(=O)OCC1=C(C(=O)O)N2C(=O)[C@@H](NC(=O)C(C)c3nc(C)no3)[C@H]2SC1 (mixture of isomers) [Example 11I, dl-7-[α-methyl-(3-methyl-1,2,4-oxadiazol-5-yl)-acetamido]-cephalosporanic acid]	1.2	1.5	1.2	> 100	25	0.25	75	1.2	50	0.12	1.5	> 100	1	> 100	> 125	12.5	6	25	1.5	3	MIC (Prot.mirab. H 3; [8]): 12.5 µg/mL; MIC (Salm.dubl. P 43; 24 h): 12.5 µg/mL; MIC (Prot.rettg. A 821; [9]): 6 µg/mL; MIC (Prot.mirab. L 93; [8]): 12.5 µg/mL; MIC (Prot.morg. 2241): > 100 µg/mL; MIC (Bruc.melit. A 488): 6 µg/mL
CCc1noc(C(C)C(=O)N[C@@H]2C(=O)N3C(C(=O)O)=C(COC(C)=O)CS[C@H]23)n1 (mixture of isomers) [Example 11K, dl-7-[α-methyl-(3-ethyl-1,2,4-oxadiazol-5-yl)-acetamido]-cephalosporanic acid]	1.2	1.5	0.9	> 100	> 100	0.06	100	0.9	> 100	0.25	1.5	> 100	1.5	> 100	125	25	6	> 100	1	1.5	MIC (Prot.mirab. H 3; [10]): > 100 µg/mL; MIC (Salm.dubl. P 43; [9]): 100 µg/mL; MIC (Prot.rettg. A 821): 12.5 µg/mL; MIC (Dipl.pneum. L 54): 1 µg/mL; MIC (Prot.mirab. L 93; [8]): 12.5 µg/mL; MIC (Prot.morg. 2241): > 100 µg/mL; MIC (Bruc.melit. A 488): 12.5 µg/mL
COCc1noc(CC(=O)N[C@@H]2C(=O)N3[C@@H]2SC(C)(C)[C@@H]3C(=O)O)n1 [Compound A, 6-[(3-methoxymethyl-1,2,4-oxadiazol-5-yl)-acetamido]-penicillanic acid]	90 (≈ 243 µM)	1 (≈ 2.7 µM)	60 (≈ 162 µM)	> 100	100 (≈ 270 µM)	0.03 (≈ 0.081 µM)	6 (≈ 16.2 µM)	3.7 (≈ 9.99 µM)	50 (≈ 135 µM)	0.06 (≈ 0.162 µM)	6 (≈ 16.2 µM)	> 100	0.5 (≈ 1.35 µM)	> 100	4 (≈ 10.8 µM)	1.5 (≈ 4.05 µM)	> 100	25 (≈ 67.5 µM)	1.5 (≈ 4.05 µM)	6 (≈ 16.2 µM)	MIC (Prot.mirab. H 3; [10]): > 100 µg/mL; MIC (Salm.dubl. P 43; [9]): 12.5 µg/mL (≈ 33.7 µM); MIC (Prot.rettg. A 821; [9]): 6 µg/mL (≈ 16.2 µM); MIC (Dipl.pneum. L 54): 0.25 µg/mL (≈ 0.675 µM); MIC (Prot.mirab. L 93; [10]): 12.5 µg/mL (≈ 33.7 µM); MIC (Prot.morg. 2241): > 100 µg/mL; MIC (Bruc.melit. A 488): 0.5 µg/mL (≈ 1.35 µM)
CC(=O)OCC1=C(C(=O)O)N2C(=O)[C@@H](NC(=O)C(c3ccccc3)c3nc(C)no3)[C@H]2SC1 (stereo partly drawn) [Compound B, 7-[α-phenyl-(3-methyl-1,2,4-oxadiazol-5-yl)-acetamido]-3-acetoxymethyl-3-cephem-4-carboxylic acid]	1.2 (≈ 2.54 µM)	0.5 (≈ 1.06 µM)	1.2 (≈ 2.54 µM)	> 100	> 100	0.5 (≈ 1.06 µM)	50 (≈ 106 µM)	1.2 (≈ 2.54 µM)	> 100	0.25 (≈ 0.529 µM)	1.5 (≈ 3.17 µM)	> 100	0.5 (≈ 1.06 µM)	> 100	1.2 (≈ 2.54 µM)	> 100	6 (≈ 12.7 µM)	> 100	1.5 (≈ 3.17 µM)	1.5 (≈ 3.17 µM)	MIC (Prot.mirab. H 3; [10]): > 100 µg/mL; MIC (Salm.dubl. P 43; [9]): > 100 µg/mL; MIC (Prot.rettg. A 821; [9]): 3 µg/mL (≈ 6.35 µM); MIC (Dipl.pneum. L 54): 1 µg/mL (≈ 2.12 µM); MIC (Prot.mirab. L 93; [10]): 25 µg/mL (≈ 52.9 µM); MIC (Prot.morg. 2241): > 100 µg/mL; MIC (Bruc.melit. A 488): 1.5 µg/mL (≈ 3.17 µM)
CC1=C(C(=O)O)N2C(=O)[C@@H](NC(=O)Cc3nc(-c4c(Cl)cccc4Cl)no3)[C@H]2SC1 [Example 11E, 7-{[3-(2,6-dichlorophenyl)-1,2,4-oxadiazol-5-yl]-acetamido}desacetoxycephalosporanic acid]	3.7 (≈ 7.88 µM)	25 (≈ 53.3 µM)	0.25 (≈ 0.533 µM)	> 100	> 100	0.25 (≈ 0.533 µM)	12.5 (≈ 26.6 µM)	0.25 (≈ 0.533 µM)	> 100	1 (≈ 2.13 µM)	0.75 (≈ 1.6 µM)	> 100	0.5 (≈ 1.07 µM)	> 100	125 (≈ 266 µM)	> 100	100 (≈ 213 µM)	> 100	1 (≈ 2.13 µM)	0.75 (≈ 1.6 µM)	MIC (Prot.mirab. H 3; [10]): > 100 µg/mL; MIC (Salm.dubl. P 43; [9]): > 100 µg/mL; MIC (Prot.rettg. A 821; [9]): > 100 µg/mL; MIC (Prot.mirab. L 93; [10]): > 100 µg/mL; MIC (Prot.morg. 2241): > 100 µg/mL; MIC (Bruc.melit. A 488): 50 µg/mL (≈ 107 µM)
